# Assay results: ChEMBL document CHEMBL1268996, “Apoptotic action of ursolic acid isolated from Corni fructus in RC-58T/h/SA#4 primary human prostate cancer cells” (2010)
# Calls of active or inactive are those of the source. No cut-off for these calls is given here.
# What was measured:
# Homo sapiens [1] = species on record: Homo sapiens; test: Induction of apoptosis in human RC-58T/h/SA#4 cells assessed as chromatin condensation at 30 to 40 uM after 24 hrs by Hoechst 33258 staining; type: functional, cell-based
# [2] = Induction of apoptosis in human RC-58T/h/SA#4 cells assessed as increase in sub-G1 DNA content at 40 ug/ml after 24 hrs by flow cytometry; type: functional
# Homo sapiens [3] = species on record: Homo sapiens; test: Antiproliferative activity against human RC-58T/h/SA#4 cells at >= 30 uM SRB assay; type: functional, cell-based; settings: TDE = time-dependent effect
# [4] = Induction of apoptosis in human RC-58T/h/SA#4 cells assessed as caspase 9 activation at 40 uM by fluorometric protease assay relative to control; type: functional
# Homo sapiens [5] = species on record: Homo sapiens; test: Induction of apoptosis in human RC-58T/h/SA#4 cells assessed as PARP cleavage by Western blot analysis in presence of 10 uM Z-VAD-fmk caspase inhibitor; type: functional, cell-based
# Homo sapiens [6] = species on record: Homo sapiens; test: Induction of apoptosis in human RC-58T/h/SA#4 cells assessed as nuclear fragmentation at 30 to 40 uM after 24 hrs by Hoechst 33258 staining; type: functional, cell-based
# [7] = Induction of apoptosis in human RC-58T/h/SA#4 cells assessed as caspase 3 activation at 40 uM by fluorometric protease assay relative to control; type: functional
# Homo sapiens [8] = species on record: Homo sapiens; test: Induction of apoptosis in human RC-58T/h/SA#4 cells assessed as caspase 8-mediated Bid protein cleavage at 30 to 40 uM by Western blot analysis; type: functional, cell-based
# [9] = Induction of apoptosis in human RC-58T/h/SA#4 cells assessed as caspase 8 activation at 40 uM by fluorometric protease assay relative to control; type: functional
# Homo sapiens [10] = species on record: Homo sapiens; test: Induction of apoptosis in human RC-58T/h/SA#4 cells assessed as decrease in anti-apoptotic protein Bcl-2 at 30 to 40 uM by Western blot analysis; type: functional, cell-based
# [11] = Induction of apoptosis in human RC-58T/h/SA#4 cells assessed as increase in sub-G1 DNA content at 20 ug/ml after 24 hrs by flow cytometry; type: functional
# [12] = Induction of apoptosis in human RC-58T/h/SA#4 cells assessed as increase in sub-G1 DNA content at 10 ug/ml after 24 hrs by flow cytometry; type: functional
# Homo sapiens [13] = species on record: Homo sapiens; test: Antiproliferative activity against human RC-58T/h/SA#4 cells after 24 to 72 hrs SRB assay; type: functional, cell-based
# [14] = Induction of apoptosis in human RC-58T/h/SA#4 cells assessed as increase in sub-G1 DNA content at 30 ug/ml after 24 hrs by flow cytometry; type: functional
# Homo sapiens [15] = species on record: Homo sapiens; test: Induction of apoptosis in human RC-58T/h/SA#4 cells assessed as increase in sub-G1 DNA content after 24 hrs by flow cytometry; type: functional, cell-based
# Homo sapiens [16] = species on record: Homo sapiens; test: Antiproliferative activity against human RC-58T/h/SA#4 cells assessed as decrease in viable cells by trypan blue assay; type: functional, cell-based
# Homo sapiens [17] = species on record: Homo sapiens; test: Induction of apoptosis in human RC-58T/h/SA#4 cells assessed as increase in pro-apoptotic protein Bax at 30 to 40 uM by Western blot analysis; type: functional, cell-based
# Homo sapiens [18] = species on record: Homo sapiens; test: Induction of apoptosis in human RC-58T/h/SA#4 cells assessed as DNA fragmentation ladder at 30 to 40 uM after 24 hrs by agarose gel electrophoresis; type: functional, cell-based
# Homo sapiens [19] = species on record: Homo sapiens; test: Induction of apoptosis in human RC-58T/h/SA#4 cells assessed as AIF translocation into nucleus at 30 to 40 uM by Western blot analysis; type: functional, cell-based
# Homo sapiens [20] = species on record: Homo sapiens; test: Induction of apoptosis in human RC-58T/h/SA#4 cells assessed as PARP cleavage by Western blot analysis; type: functional, cell-based
compound,measurement,setting,value
C[C@H]1[C@H](C)CC[C@]2(C(=O)O)CC[C@]3(C)C(=CC[C@@H]4[C@@]5(C)CC[C@H](O)C(C)(C)[C@@H]5CC[C@]43C)[C@H]12 [URSOLIC ACID],Activity,Homo sapiens [1],Active
same,Activity,[2],58.6%
same,Activity,Homo sapiens [3],tde
same,fold change (FC),[4],1.1
same,Activity,Homo sapiens [5],inactive
same,Activity,Homo sapiens [6],Active
same,fold change (FC),[7],1.8
same,Activity,Homo sapiens [8],Active
same,fold change (FC),[9],1.8
same,Activity,Homo sapiens [10],Active
same,Activity,[11],20.83%
same,Activity,[12],5.41%
same,Activity,Homo sapiens [13],Dose-dependent effect
same,Activity,[14],48.1%
same,Activity,Homo sapiens [15],Dose-dependent effect
same,Activity,Homo sapiens [16],Dose-dependent effect
same,Activity,Homo sapiens [17],Active
same,Activity,Homo sapiens [18],Active
same,Activity,Homo sapiens [19],Active
same,Activity,Homo sapiens [20],Active
